# Test results taken from US20160145257A1, “SUBSTITUTED XANTHINES AND METHODS OF USE THEREOF” (Hydra Biosciences, Inc., priority 2013, published 2016).
# Structures can show the parent of a compound that is named as a salt.
# Molecular target: T1, hTRPC5 (Homo sapiens, UniProt Q9UL62)
# T1 construct: expressed in transfected cells; host or cells: HEK293 TREx cells with inducible TRPC5 expression
# T1 sequence (Q9UL62 1-973): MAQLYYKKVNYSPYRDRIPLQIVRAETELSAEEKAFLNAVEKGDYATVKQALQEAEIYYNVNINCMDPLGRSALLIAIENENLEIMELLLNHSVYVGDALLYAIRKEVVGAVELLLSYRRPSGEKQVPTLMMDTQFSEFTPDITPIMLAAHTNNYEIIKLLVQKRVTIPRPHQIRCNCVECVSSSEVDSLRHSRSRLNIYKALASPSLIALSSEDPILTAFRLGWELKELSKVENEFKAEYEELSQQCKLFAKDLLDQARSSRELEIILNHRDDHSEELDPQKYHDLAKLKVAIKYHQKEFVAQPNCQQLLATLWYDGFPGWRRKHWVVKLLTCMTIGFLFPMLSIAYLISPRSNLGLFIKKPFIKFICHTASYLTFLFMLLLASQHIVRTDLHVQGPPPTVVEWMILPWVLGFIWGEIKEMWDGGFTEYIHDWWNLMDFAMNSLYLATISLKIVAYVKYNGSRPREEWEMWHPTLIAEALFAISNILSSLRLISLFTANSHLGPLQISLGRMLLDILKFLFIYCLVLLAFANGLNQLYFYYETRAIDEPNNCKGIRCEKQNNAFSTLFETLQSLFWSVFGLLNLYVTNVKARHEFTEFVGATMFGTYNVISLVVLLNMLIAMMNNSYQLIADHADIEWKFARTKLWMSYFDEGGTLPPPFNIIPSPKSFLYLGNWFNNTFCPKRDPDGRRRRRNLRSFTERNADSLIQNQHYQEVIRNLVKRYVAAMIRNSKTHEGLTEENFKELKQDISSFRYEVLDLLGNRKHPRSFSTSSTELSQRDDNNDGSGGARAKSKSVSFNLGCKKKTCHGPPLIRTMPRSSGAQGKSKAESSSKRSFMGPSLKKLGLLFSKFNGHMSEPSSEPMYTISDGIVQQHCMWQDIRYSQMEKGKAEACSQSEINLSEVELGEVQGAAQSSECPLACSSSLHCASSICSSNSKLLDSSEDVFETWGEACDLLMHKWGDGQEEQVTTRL
# Experiment: Whole-cell patch clamp, block of LaCl3-activated TRPC5 inward current
# Assay type: cell-based
# Settings: TRPC5-expressing HEK293 TREx cells, 80 μM LaCl3, inward current, IC50 estimated from 5 μM and 500 nM, read-out: hTRPC5 Patch La3+ Inwd (nM) (All Batches)
# Description: In certain embodiments, exemplary compounds of Formula I and Formula II include the compounds described in Table 1 and in the Examples. A compound described herein may be tested for its ability to block both inward and outward currents through the TRPC5 channel, e.g., by an assay as described in Example 1. For example, IC50 of a compound of Formula I or Formula II was estimated by testing the compound at 5 μM and 500 nM. […] IC50 for a compound of Formula I or Formula II between 500 nM and 5 μM was similarly estimated. As shown, “A” refers to an IC50<100 nM. “B” refers to an IC50 between 100 nM and 500 nM. “C” refers to an IC50 between 500 nM and 1000 nM. “D” refers to an IC50 between 1 μM and 2 μM. “E” refers to an IC50 between 2 μM and 10 μM. “F” refers to […]. “ND” refers to compounds wherein the IC50 was not determined.
# Patch clamp experiments permit the detection of currents through the TRPC5 channel in the cell line described above. In normal whole-cell patch clamp recordings, a glass electrode is brought into contact with a single cell and a high-resistance (gigaohm) seal is established with the cell membrane. The membrane is then ruptured to achieve the whole-cell configuration, permitting control of the voltage of the cell membrane and measurement of currents flowing across the membrane using the amplifier attached to the electrode and resulting in the replacement of cytoplasm with the pipette solution. A perfusion system permits control of the extracellular solution, including the addition of blockers and activators of the current. The current can be activated by including 1.4 μM free Ca^2+ in the pipette (intracellular) solution, and 80 μM LaCl3 in the extracellular solution.
# TRPC5 cells were induced 20-48 hours, removed from growth plates, and replated at low density (to attain good single-cell physical separation) on glass coverslips for measurement. In some cases, cells were grown in low density overnight on glass coverslips. Patch clamp recordings were made in the whole-cell mode with a holding potential of −40 mV. Every 5 seconds, a voltage ramp was applied from −120 to +100 mV, 400 ms in duration. Currents elicited were quantified at −80 mV and +80 mV. The internal solution consisted of 140 mM cesium aspartate, 10 mM HEDTA, 2 mM CaCl2, 2.27 mM MgCl2 and 10 mM HEPES, pH 7.2, with 1,400 nM calculated free Ca^2+. The external solution consisted of 150 mM NaCl, 4.5 mM KCl, 1 mM MgCl2, 2 mM CaCl2, 10 mM HEPES, 10 mM glucose, 1 mM EGTA, pH 7.4. Upon addition of LaCl3, TRPC5 current was induced only in TRPC5-expressing cells and not in parental HEK293 TREx cells. Removal of the LaCl3 stimulus causes most of the current to go away. Potential blockers were tested for ability to block both inward and outward currents in the continued presence of LaCl3.
# IC50 of a compound of Formula I or Formula II was estimated by testing the compound at 5 μM and 500 nM. […] IC50 for a compound of Formula I or Formula II between 500 nM and 5 μM was similarly estimated.
row,IC50 [nM],Compound
1,2000 to 10000,"CCc1coc(CSc2nc3c(c(=O)n(C)c(=O)n3C)n2Cc2ccc(C(C)=O)cc2)n1 [Compound 181, 7-(4-acetylbenzyl)-8-((4-ethyloxazol-2-yl)methylthio)-1,3-dimethyl-1H-purine-2,6(3H,7H)-dione]"
2,100 to 500,"CCc1coc(CSc2nc3c(c(=O)n(C)c(=O)n3C)n2Cc2cccc(C)c2)n1 [Compound 132, 8-((4-ethyloxazol-2-yl)methylthio)-1,3-dimethyl-7-(3-methylbenzyl)-1H-purine-2,6(3H,7H)-dione]"
3,2000 to 10000,"CCCN(C)CCc1nc2c(c(=O)n(C)c(=O)n2C)n1Cc1cccc(Br)c1 [Compound 48, 7-(3-Bromobenzyl)-1,3-dimethyl-8-(2-(methyl(propyl)amino)ethyl)-1H-purine-2,6(3H,7H)-dione hydrochloride]"
4,500 to 1000,"CCC(=O)CSc1nc2c(c(=O)n(C)c(=O)n2C)n1Cc1cccc(Br)c1 [Compound 1, 7-(3-bromobenzyl)-1,3-dimethyl-8-(2-oxobutylthio)-1H-purine-2,6(3H,7H)-dione]"
5,2000 to 10000,"CCOC(=O)Cc1nc2c(c(=O)n(C)c(=O)n2C)n1Cc1cccc(Br)c1 [Compound 34, Ethyl 2-(7-(3-bromobenzyl)-1,3-dimethyl-2,6-dioxo-2,3,6,7-tetrahydro-1H-purin-8yl)acetate]"
6,100 to 500,"CCc1coc(CSc2nc3c(c(=O)n(C)c(=O)n3C)n2Cc2cccc(F)c2)n1 [Compound 147, 8-((4-ethyloxazol-2-yl)methylthio)-7-(3-fluorobenzyl)-1,3-dimethyl-1H-purine-2,6(3H,7H)-dione]"
7,< 100,"CCCC(=O)CSc1nc2c(c(=O)n(C)c(=O)n2C)n1Cc1cccc(Br)c1 [Compound 13, 7-(3-bromobenzyl)-1,3-dimethyl-8-(2-oxopentylthio)-1H-purine-2,6(3H,7H)-dione]"
8,100 to 500,"CCOCCSc1nc2c(c(=O)n(C)c(=O)n2C)n1Cc1cccc(Br)c1 [Compound 6, 7-(3-bromobenzyl)-8-(2-ethoxyethylthio)-1,3-dimethyl-1H-purine-2,6(3H,7H)-dione]"
9,2000 to 10000,"COc1cccc(Cn2c(Oc3ccc(-c4ccccn4)cc3)nc3c2c(=O)n(C)c(=O)n3C)c1 [Compound 189, 7-(3-methoxybenzyl)-1,3-dimethyl-8-(4-(pyridin-2-yl)phenoxy)-1H-purine-2,6(3H,7H)-dione]"
10,2000 to 10000,"C=Cc1nc2c(c(=O)n(C)c(=O)n2C)n1Cc1cccc(Br)c1 [Compound 41, 7-(3-Bromobenzyl)-1,3-dimethyl-8-vinyl-1H-purine-2,6(3H,7H)-dione]"
11,100 to 500,"COCCOCCSc1nc2c(c(=O)n(C)c(=O)n2C)n1Cc1cccc(Br)c1 [Compound 17, 7-(3-bromobenzyl)-8-(2-(2-methoxyethoxy)ethylthio)-1,3-dimethyl-1H-purine-2,6(3H,7H)-dione]"
12,100 to 500,"COc1cc(Cn2c(Oc3cccc(OC(F)(F)F)c3)nc3c2c(=O)n(C)c(=O)n3C)ccc1Cl [Compound 205, 7-(4-chloro-3-methoxybenzyl)-1,3-dimethyl-8-(3-(trifluoromethoxy)phenoxy)-1H-purine-2,6(3H,7H)-dione]"
13,2000 to 10000,"CCCC(=O)c1cccc(Cc2nc3c(c(=O)n(C)c(=O)n3C)n2Cc2cccc(Br)c2)c1 [Compound 161, 7-(3-bromobenzyl)-8-(3-butyrylbenzyl)-1,3-dimethyl-1H-purine-2,6(3H,7H)-dione]"
14,2000 to 10000,"CC(Cc1nc2c(c(=O)n(C)c(=O)n2C)n1Cc1cccc(Br)c1)C(=O)O (stereo not drawn) [Compound 117, 3-(7-(3-Bromobenzyl)-1,3-dimethyl-2,6-dioxo-2,3,6,7-tetrahydro-1H-purin-8-yl)-2-methylpropanoic acid]"
15,2000 to 10000,"CCCNC(=O)Cc1nc2c(c(=O)n(C)c(=O)n2C)n1Cc1cccc(Br)c1 [Compound 27, 2-(7-(3-Bromobenzyl)-1,3-dimethyl-2,6-dioxo-2,3,6,7-tetrahydro-1H-purin-8-yl)-N-propylacetamide]"
